Experimental data from patent publication US20260240847A1, “COMPOUNDS WITH ANTI-TUMOR ACTIVITY AGAINST CANCER CELLS BEARING TYROSINE KINASE INHIBITOR RESISTANT EGFR MUTATIONS” (BOARD OF REGENTS, THE UNIVERSITY OF TEXAS SYSTEM, priority 2019, published 2026).

Tests used:
Assay in all cases: Ba/F3 cell viability, Cell Titer Glo
EGFR E709A = EGFR E709A (Homo sapiens, UniProt P00533, E709A); conditions: read-out: IC50 Values; Ba/F3 cells expressing EGFR E709A, 72 hours
Method: (§1) Cell viability was determined by the Cell Titer Glo assay.
(§2) Briefly, stable Ba/F3 cell lines were generated by retroviral transduction of Ba/F3 cell line for 12 hours. […] Three days after transduction, 2 μg/ml puromycin (Invitrogen) was added to the RPMI media. Cell lines were then grown in the absence of IL-3 for two weeks and cell viability was assessed every three days using the Cell Titer Glo assay (Progema).
(§3) Briefly, 2000-3000 cells per well were plated in 384-well plates (Greiner Bio-One) in technical triplicate. Cells were treated with seven different concentrations of tyrosine kinase inhibitors or vehicle alone at a final volume of 40 μL per well. After 3 days, 11 μL of Cell Titer Glo was added to each well. Plates were shaken for 15 minutes, and bioluminescence was determined using a FLUOstar OPTIMA multi-mode micro-plate reader (BMG LABTECH). Bioluminescence values were normalized to DMSO treated cells, and normalized values were plotted in GraphPad Prism using non-linear regression fit to normalized data with a variable slope.

EGFR E709AG719S = EGFR E709AG719S (Homo sapiens, UniProt P00533, E709A/G719S); conditions: read-out: IC50 Values; Ba/F3 cells expressing EGFR E709AG719S, 72 hours
Method: as §1, §2, §3

EGFR S768I = EGFR S768I (Homo sapiens, UniProt P00533, S768I); conditions: read-out: IC50 Values; Ba/F3 cells expressing EGFR S768I, 72 hours
Method: as §1, §2, §3

EGFR D770insNPG = EGFR D770insNPG (Homo sapiens, UniProt P00533, INS770NPG); conditions: read-out: IC50 Values; Ba/F3 cells expressing EGFR D770insNPG, 72 hours
Method: as §1, §2, §3

EGFR V774M = EGFR V774M (Homo sapiens, UniProt P00533, V774M); conditions: read-out: IC50 Values; Ba/F3 cells expressing EGFR V774M, 72 hours
Method: as §1, §2, §3

EGFR R776C = EGFR R776C (Homo sapiens, UniProt P00533, R776C); conditions: read-out: IC50 Values; Ba/F3 cells expressing EGFR R776C, 72 hours
Method: as §1, §2, §3

EGFR L858R L718Q = EGFR L858R L718Q (Homo sapiens, UniProt P00533, L718Q/L858R); conditions: read-out: IC50 Values; Ba/F3 cells expressing EGFR L858R L718Q, 72 hours
Method: The transforming capability of the mutations was then evaluated by sustained cell viability following IL-3 deprivation. Activating EGFR mutant Ba/F3 cells were then screened against EGFR TKIs. Cell viability was determined by the Cell Titer Glo assay.
Ba/F3 cells expressing acquired atypical mutations spanning exons 18-21 were treated with inhibitors for 72 hours. […] Briefly, stable Ba/F3 cell lines were generated by retroviral transduction of Ba/F3 cell line for 12 hours. […] Three days after transduction, 2 μg/ml puromycin (Invitrogen) was added to the RPMI media. Cell lines were then grown in the absence of IL-3 for two weeks and cell viability was assessed every three days using the Cell Titer Glo assay (Progema).
as §3

EGFR Ex19del/T790M/L792H = EGFR Ex19del/T790M/L792H (Homo sapiens, UniProt P00533, DEL746-750/L792H/T790M); conditions: read-out: IC50 Values; Ba/F3 cells expressing EGFR Ex19del/T790M/L792H, 72 hours
Method: as §1, §2, §3

EGFR S768I/T790M = EGFR S768I/T790M (Homo sapiens, UniProt P00533, S768I/T790M); conditions: read-out: IC50 Values; Ba/F3 cells expressing EGFR S768I/T790M, 72 hours
Method: as §1, §3

`C=CC(=O)N1CC[C@@H](Oc2nc(Nc3ccc(N4CCC(N5CCN(C)CC5)CC4)cc3)c(C(N)=O)nc2CC)C1` [Naquotinib] was tested, and the IC50 (EGFR E709A) was 0.255 µM, the IC50 (EGFR E709AG719S) was 0.0481 µM and the IC50 (EGFR S768I) was 0.503 µM. The IC50 (EGFR D770insNPG) was 0.175 µM, the IC50 (EGFR V774M) was 0.0385 µM and the IC50 (EGFR R776C) was 0.575 µM. It also gave an IC50 (EGFR L858R L718Q) of 0.747 µM, an IC50 (EGFR Ex19del/T790M/L792H) of 0.00475 µM and an IC50 (EGFR S768I/T790M) of 0.0192 µM.
